# Measured values reported in patent US11198695B2, “Fused ring derivative having MGAT-2 inhibitory activity” (Shionogi & Co., Ltd., priority 2017, dated 2021).
# Biological target: recombinant human MGAT2 (Homo sapiens (Human), UniProt Q3SYC2)
# Test: Measurement of human MGAT2 inhibitory activity
# Type: biochemical
# Conditions: read-out: IC50 (concentration exhibiting 50% enzyme inhibition), Table 52
# Method: A full-length human MGAT2 gene to which a Flag-tag had been added at the N-terminal was inserted into pFastBac (from Invitrogen). A recombinant baculovirus was produced in accordance with the protocol for a Bac-to-Bac baculovirus expression system (produced by Invitrogen), and Sf-9 cells were infected therewith. The cells were collected and sonicated, and then the membrane fraction was collected through centrifugation. Western blotting analysis with an anti-Flag antibody was performed for the membrane fraction to confirm expression, and the membrane fraction was used as a recombinant human MGAT2 enzyme solution.
# Solutions of the compounds of the present invention in DMSO were each aliquoted into 0.2-μL portions in a 384-well polystyrene microplate produced by Corning Incorporated, and 5 μL of an enzyme solution prepared with an assay buffer (100 mmol/L phosphate buffer (pH 7.4) containing 2 mmol/L DTT) and 5 μL of a substrate solution (100 mmol/L phosphate buffer (pH 7.4), 30 μmol/L 2-Oleoylglycerol, 10 μmol/L Oleoyl-CoA) were added thereto, and the resultant was stirred and centrifuged, and incubated in a moist chamber at room temperature for 1 hour. After enzymatic reaction, 50 μL of a quenching solution (containing 0.2 μmol/L Diolein-d5, 0.4% formic acid, and 50% isopropanol) containing Internal Standard (IS) was added to terminate the reaction, and the resultant was sealed in a plate produced by Shimadzu GLC Ltd., and then stirred and centrifuged, and measurement was performed by using an electrospray ionization method with a RapidFire360 and Agilent 6550 Q-TOF mass spectrometer. Diolein as a reaction product (P) of 2-Oleoylglycerol as the substrate and an ammonium adduct ion of the IS were detected, and the peak intensity ratio, P/IS, was calculated from the peak heights to evaluate the inhibitory activity. Inhibitory activities with/without addition of enzyme were defined as Control (+)/Control (−), respectively, and the respective % inhibitions were defined as 0% inhibition and 100% inhibition. The inhibitory activity was calculated from formula below with TIBCO Spotfire (produced by TIBCO Software Inc.): Inhibitory activity (%)=[1−{Sample−Control(−)}/{Control(+)−Control(−)}]*100 where Sample indicates a peak intensity ratio: P/IS, when the compound of the present invention was added.
# recombinant human MGAT2, sequence (Q3SYC2 whole entry): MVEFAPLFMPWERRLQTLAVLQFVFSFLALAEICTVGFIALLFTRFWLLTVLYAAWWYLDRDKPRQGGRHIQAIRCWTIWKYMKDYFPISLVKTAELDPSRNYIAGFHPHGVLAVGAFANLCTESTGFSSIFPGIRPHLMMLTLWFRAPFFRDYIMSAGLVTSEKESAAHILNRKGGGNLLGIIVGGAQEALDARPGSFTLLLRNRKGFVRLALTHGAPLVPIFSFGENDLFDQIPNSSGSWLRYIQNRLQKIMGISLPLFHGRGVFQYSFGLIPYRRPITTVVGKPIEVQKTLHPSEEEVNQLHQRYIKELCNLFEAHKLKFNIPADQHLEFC
row,Compound,IC50
1,CNS(=O)(=O)CC(=O)Nc1c2c(nn1CCC1CC1)C[C@]1(CCc3cc(OCCCC(F)(F)F)ccc31)NC2=O [Compound I-31],3.2 nM
2,O=C(COC(F)(F)F)Nc1c2c(nn1CCC1CC1)C[C@]1(CCc3cc(OCCCC(F)(F)F)ccc31)NC2=O [Compound I-32],17 nM
3,CS(=O)(=O)CC(=O)Nc1c2c(nn1-c1ccc(OC(F)(F)F)cc1)C[C@]1(CCc3cc(OCCCC(F)(F)F)ccc31)NC2=O [Compound I-33],14.7 nM
4,CS(=O)(=O)CC(=O)Nc1c2c(nn1CCC1CC1)C[C@]1(CCc3cc(CCC(F)(F)F)ccc31)NC2=O [Compound I-35],6.8 nM
5,CS(=O)(=O)CC(=O)Nc1c2c(nn1CCC1CC1)C[C@]1(CCc3cc(Br)ccc31)NC2=O [Compound I-36],27 nM
6,CS(=O)(=O)Nc1c2c(nn1CCC1CC1)C[C@]1(CCc3cc(OCCCC(F)(F)F)ccc31)NC2=O [Compound I-38],625 nM
7,CS(=O)(=O)CC(=O)Nc1c2c(nn1-c1cccc3ccccc13)C[C@]1(CCc3cc(OCCCC(F)(F)F)ccc31)NC2=O [Compound I-39],930 nM
8,CS(=O)(=O)CC(=O)Nc1c2c(nn1C1CCCCC1)C[C@]1(CCc3cc(OCCCC(F)(F)F)ccc31)NC2=O [Compound I-40],18 nM
9,CS(=O)(=O)CC(=O)Nc1c2c(nn1-c1cccc3c1CCC3)C[C@]1(CCc3cc(OCCCC(F)(F)F)ccc31)NC2=O [Compound I-41],79 nM
10,Cc1ccc(-n2nc3c(c2NC(=O)CS(C)(=O)=O)C(=O)N[C@@]2(CCc4cc(OCCCC(F)(F)F)ccc42)C3)cc1 [Compound I-42],2.5 nM
11,CS(=O)(=O)CC(=O)Nc1c2c(nn1-c1ccc(S(C)(=O)=O)cc1)C[C@]1(CCc3cc(OCCCC(F)(F)F)ccc31)NC2=O [Compound I-43],340 nM
12,CS(=O)(=O)CC(=O)Nc1c2c(nn1-c1ccc(C#N)cc1)C[C@]1(CCc3cc(OCCCC(F)(F)F)ccc31)NC2=O [Compound I-44],3.9 nM
13,Cn1c(-n2nc3c(c2NC(=O)CS(C)(=O)=O)C(=O)N[C@@]2(CCc4cc(OCCCC(F)(F)F)ccc42)C3)nc2ccccc21 [Compound I-45],41.5 nM
14,CN(C)CCn1nc2c(c1NC(=O)CS(C)(=O)=O)C(=O)N[C@@]1(CCc3cc(OCCCC(F)(F)F)ccc31)C2 [Compound I-46],440 nM
15,CS(=O)(=O)CC(=O)Nc1c2c(nn1CCN1CCCC1)C[C@]1(CCc3cc(OCCCC(F)(F)F)ccc31)NC2=O [Compound I-47],265 nM
16,Cc1ccc(-n2nc(NC(=O)CS(C)(=O)=O)c3c2C[C@]2(CCc4cc(OCCCC(F)(F)F)ccc42)NC3=O)cc1 [Compound I-48],195 nM
17,CS(=O)(=O)CC(=O)Nc1c2c(nn1CCC1CC1)C[C@]1(CCOc3cc(OCC(F)(F)F)ccc31)NC2=O [Compound I-49],1.9 nM
18,CS(=O)(=O)CC(=O)Nc1c2c(nn1CCCc1ccccc1)C[C@]1(CCc3cc(OCCCC(F)(F)F)ccc31)NC2=O [Compound I-50],190 nM
19,CCCCn1nc2c(c1NC(=O)CS(C)(=O)=O)C(=O)N[C@@]1(CCc3cc(OCCCC(F)(F)F)ccc31)C2 [Compound I-51],16 nM
20,CS(=O)(=O)CC(=O)Nc1c2c(nn1CCc1ccccc1)C[C@]1(CCc3cc(OCCCC(F)(F)F)ccc31)NC2=O [Compound I-52],24 nM
21,CS(=O)(=O)CC(=O)Nc1c2c(nn1CCOCC(F)F)C[C@]1(CCc3cc(OCCCC(F)(F)F)ccc31)NC2=O [Compound I-53],13 nM
22,CCCn1nc2c(c1NC(=O)CS(C)(=O)=O)C(=O)N[C@@]1(CCc3cc(OCCCC(F)(F)F)ccc31)C2 [Compound I-54],48 nM
23,CS(=O)(=O)CC(=O)Nc1c2c(nn1CC1CCCO1)C[C@]1(CCc3cc(OCCCC(F)(F)F)ccc31)NC2=O (stereo partly shown) [Compound I-56],25 nM
24,CS(=O)(=O)CC(=O)Nc1c2c(nn1CCC1CCCCC1)C[C@]1(CCc3cc(OCCCC(F)(F)F)ccc31)NC2=O [Compound I-57],10 nM
25,COCCCn1nc2c(c1NC(=O)CS(C)(=O)=O)C(=O)N[C@@]1(CCc3cc(OCCCC(F)(F)F)ccc31)C2 [Compound I-58],5.5 nM
26,CS(=O)(=O)CC(=O)Nc1c2c(nn1CCn1cccn1)C[C@]1(CCc3cc(OCCCC(F)(F)F)ccc31)NC2=O [Compound I-59],14 nM
27,CS(=O)(=O)CC(=O)Nc1c2c(nn1CCOC(F)(F)F)C[C@]1(CCc3cc(OCCCC(F)(F)F)ccc31)NC2=O [Compound I-60],94 nM
28,CS(=O)(=O)CC(=O)Nc1c2c(nn1CC1CCC(C(F)(F)F)CC1)C[C@]1(CCc3cc(OCCCC(F)(F)F)ccc31)NC2=O (stereo partly shown) [Compound I-61],340 nM

row,Compound,IC50
1,CS(=O)(=O)CC(=O)Nc1nn(CCCc2ccccc2)c2c1C(=O)N[C@@]1(CCc3cc(OCCCC(F)(F)F)ccc31)C2 [Compound I-62],250 nM
2,CCCCn1nc(NC(=O)CS(C)(=O)=O)c2c1C[C@]1(CCc3cc(OCCCC(F)(F)F)ccc31)NC2=O [Compound I-63],400 nM
3,CS(=O)(=O)CC(=O)Nc1nn(CCOCC(F)F)c2c1C(=O)N[C@@]1(CCc3cc(OCCCC(F)(F)F)ccc31)C2 [Compound I-64],410 nM
4,CS(=O)(=O)CC(=O)Nc1nn(CCC2CCCCC2)c2c1C(=O)N[C@@]1(CCc3cc(OCCCC(F)(F)F)ccc31)C2 [Compound I-65],660 nM
5,CS(=O)(=O)CC(=O)Nc1nn(CCn2cccn2)c2c1C(=O)N[C@@]1(CCc3cc(OCCCC(F)(F)F)ccc31)C2 [Compound I-66],970 nM
6,O=C1N[C@@]2(CCc3cc(OCC(F)(F)F)ccc32)Cc2nn(CCC3CC3)c(C(=O)NC3CS(=O)(=O)C3)c21 [Compound I-68],760 nM
7,CC(C)(O)CCn1nc2c(c1NC(=O)CS(C)(=O)=O)C(=O)N[C@@]1(CCc3cc(OCCCC(F)(F)F)ccc31)C2 [Compound I-69],55 nM
8,CS(=O)(=O)CC(=O)Nc1c2c(nn1CCC1CC1)C[C@](c1ccc(OCC(F)(F)F)cc1)(C(F)(F)F)NC2=O [Compound I-70],54 nM
9,CS(=O)(=O)CC(=O)Nc1c2c(nn1CCC1CC1)C[C@@]1(CCc3cc(OCC(F)(F)F)ccc31)NC2=O [Compound I-71],3.9 nM
10,O=C1N[C@@]2(CCc3cc(OCCCC(F)(F)F)ccc32)Cc2nn(CCC3CC3)c(C(=O)NS(=O)(=O)C3CC3)c21 [Compound I-72],8.3 nM
11,CS(=O)(=O)CC(=O)Nc1nn(CC2CCC(C(F)(F)F)CC2)c2c1C(=O)N[C@@]1(CCc3cc(OCCCC(F)(F)F)ccc31)C2 (stereo partly shown) [Compound I-73],290 nM
12,Cc1cccc(Cn2nc(NC(=O)CS(C)(=O)=O)c3c2C[C@]2(CCc4cc(OCCCC(F)(F)F)ccc42)NC3=O)c1 [Compound I-74],520 nM
13,Cc1ccccc1Cn1nc(NC(=O)CS(C)(=O)=O)c2c1C[C@]1(CCc3cc(OCCCC(F)(F)F)ccc31)NC2=O [Compound I-75],580 nM
14,CS(=O)(=O)CC(=O)Nc1c2c(nn1C1CCCC1)C[C@]1(CCc3cc(OCC(F)(F)F)ccc31)NC2=O [Compound I-76],95.5 nM
15,CS(=O)(=O)CC(=O)Nc1c2c(nn1-c1ccc(Cl)cn1)C[C@]1(CCc3cc(OCC(F)(F)F)ccc31)NC2=O [Compound I-77],1 nM
16,O=C(Nc1c2c(nn1CCC1CC1)C[C@]1(CCc3cc(OCC(F)(F)F)ccc31)NC2=O)c1cccnc1 [Compound I-78],37.5 nM
17,O=C(Nc1c2c(nn1CCC1CC1)C[C@]1(CCc3cc(OCC(F)(F)F)ccc31)NC2=O)c1ccccn1 [Compound I-79],860 nM
18,O=C(Nc1c2c(nn1CCC1CC1)C[C@]1(CCc3cc(OCC(F)(F)F)ccc31)NC2=O)c1ccncc1 [Compound I-80],16 nM
19,O=C(Nc1c2c(nn1CCC1CC1)C[C@]1(CCc3cc(OCC(F)(F)F)ccc31)NC2=O)c1cccnn1 [Compound I-81],240 nM
20,O=C1N[C@@]2(CCc3cc(OCC(F)(F)F)ccc32)Cc2nn(CCC3CC3)c(CNC(=O)C3CCCC3)c21 [Compound I-82],230 nM
21,CC1(C(=O)NCc2c3c(nn2CCC2CC2)C[C@]2(CCc4cc(OCC(F)(F)F)ccc42)NC3=O)COC1 [Compound I-83],110 nM
22,N#CCNC(=O)c1c2c(nn1CCC1CC1)C[C@]1(CCc3cc(OCC(F)(F)F)ccc31)NC2=O [Compound I-84],430 nM
23,O=C1N[C@@]2(CCc3cc(OCC(F)(F)F)ccc32)Cc2nn(CCC3CC3)c(C(=O)NCCO)c21 [Compound I-85],570 nM
24,O=C1N[C@@]2(CCc3cc(OCC(F)(F)F)ccc32)Cc2nn(CCC3CC3)c(C(=O)NC3CCOC3)c21 (stereo partly shown) [Compound I-86],960 nM
25,CS(=O)(=O)CCNC(=O)c1c2c(nn1CCC1CC1)C[C@]1(CCc3cc(OCC(F)(F)F)ccc31)NC2=O [Compound I-87],440 nM
26,CC1(NC(=O)c2c3c(nn2CCC2CC2)C[C@]2(CCc4cc(OCC(F)(F)F)ccc42)NC3=O)COC1 [Compound I-88],270 nM
27,O=C1N[C@@]2(CCc3cc(OCC(F)(F)F)ccc32)Cc2nn(CCC3CC3)c(C(=O)NCC3(CO)COC3)c21 [Compound I-89],55 nM
